Patent US8378117B2 (priority 2005, dated 2013)
Read-outs that look alike come from different tables or passages of the source.

What was measured:
CB1 receptor = molecular target: T1, CB1 receptor (Homo sapiens, UniProt P21554); assay: Binding assay for CB1 agonists or inverse agonists (SK-N-MC membranes, [3H]-CP-55,940); settings: for inhibition at 1 µM: read-out: CB1 receptor binding percent inhibition, test concentration 1 μM (footnote 1); for inhibition at 0.25 µM: read-out: CB1 receptor binding percent inhibition, test concentration 0.25 μM (footnote 8); for CB1 receptor binding average percent inhibition: value shown is an average percent inhibition (footnote 5), concentration not given
T1 construct: expressed in transfected cells
Description: (§1) The human CB1 and CB2 receptors were stably expressed in SK-N-MC cells transfected with pcDNA3 CB-1 (human) or pcDNA3 CB-2 (human). The cells were grown in T-180 cell culture flasks under standard cell culture conditions at 37° C. in a 5% CO2 atmosphere. The cells were harvested by trysinization and homogenized in a homogenization buffer (10 mM Tris, 0.2 mM MgCl2, 5 mM KCl, with protease inhibitors aprotinin, leupeptin, pepstatin A and bacitracin) and centrifuged (2000 g). The supernatant was then centrifuged in 2M sucrose (31,300 g) to produce a semi-purified membrane pellet. The pellet was resuspended in homogenization and stored at −80° C.
(§2) On the day of the assay, the pellet was thawed on ice and diluted in assay buffer (50 mM Tris-HCl, 5 mM MgCl2, 2.5 mM EDTA, 0.5 mg/mL fatty acid free bovine serum aldumin, pH 7.5). The diluted membrane pellet was added with buffer, either a test compound or vehicle standard and the radioligand [H]^3+-CP-55,940 (0.2 mM) to the wells of a 96-well polypropylene plate. Non-specific binding was measured in wells containing WIN 55,212 (10 uM). The plate was covered and incubated for 90 minutes at 30° C. The contents were then aspirated onto a Packard Unifilter GF/C filter bottom plate prewet with 0.5% polyethyleneimine. The wells of the polypropylene plate were rinsed and aspirated seven times with a 0.9% saline-0.5% Tween 20 solution. The Unifilter plate was dried, a scintillation cocktail was added to each well and the counts representing binding were quantitated in a TopCount scintillation counter.
(§3) For compounds tested, an IC50 binding value was obtained from percent inhibition studies in which various test concentrations were used. The binding value was calculated by linear regression.

CB2 receptor = molecular target: T2, CB2 receptor (Homo sapiens, UniProt P34972); assay: Binding assay for CB2 agonists or inverse agonists (SK-N-MC membranes, [3H]-CP-55,940); settings: for CB2 receptor binding percent inhibition: test concentration not stated
T2 construct: expressed in transfected cells
Description: as §1
as §2, with “The diluted membrane pellet was added with buffer, either a test compound or vehicle standard and the radioligand [H]^3+-CP-55,940 (0.2 mM) to the wells of a 96-well polypropylene plate. Non-specific binding was measured in wells containing WIN 55,212 (10 uM).” left out
as §3

T2 sequence (P34972 whole entry): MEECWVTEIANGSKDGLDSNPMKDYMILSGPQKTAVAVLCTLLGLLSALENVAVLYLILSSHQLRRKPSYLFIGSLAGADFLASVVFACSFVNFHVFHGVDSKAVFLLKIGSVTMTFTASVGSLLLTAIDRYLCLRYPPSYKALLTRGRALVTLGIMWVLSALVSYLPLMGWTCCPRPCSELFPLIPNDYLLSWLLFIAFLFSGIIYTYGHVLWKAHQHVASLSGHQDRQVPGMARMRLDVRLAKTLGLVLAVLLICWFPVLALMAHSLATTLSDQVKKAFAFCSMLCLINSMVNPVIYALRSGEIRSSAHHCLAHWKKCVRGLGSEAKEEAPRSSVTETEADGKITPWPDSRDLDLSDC
T1 sequence (P21554 whole entry): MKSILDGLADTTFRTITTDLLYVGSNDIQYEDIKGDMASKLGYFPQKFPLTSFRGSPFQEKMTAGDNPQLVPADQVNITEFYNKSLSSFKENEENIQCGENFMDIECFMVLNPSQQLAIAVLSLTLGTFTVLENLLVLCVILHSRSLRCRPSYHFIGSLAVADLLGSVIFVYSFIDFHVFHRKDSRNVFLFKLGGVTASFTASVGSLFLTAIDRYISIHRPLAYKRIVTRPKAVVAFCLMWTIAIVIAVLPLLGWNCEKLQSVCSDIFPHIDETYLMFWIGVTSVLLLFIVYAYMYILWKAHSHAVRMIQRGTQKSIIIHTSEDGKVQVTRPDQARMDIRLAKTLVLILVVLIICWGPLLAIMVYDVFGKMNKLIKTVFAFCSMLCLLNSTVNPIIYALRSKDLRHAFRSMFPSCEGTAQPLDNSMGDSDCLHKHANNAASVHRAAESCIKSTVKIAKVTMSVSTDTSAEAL

O=C(NC1CCCC1)c1nn(C2CCCCC2)c2c1CCCCC2Cc1cccc(F)c1 (centres unmarked) [Cpd 52, 1-cyclohexyl-8-(3-fluoro-benzyl)-1,4,5,6,7,8-hexahydro-cycloheptapyrazole-3-carboxylic acid cyclopentylamide]
inhibition at 1 µM (CB1 receptor): 26% | CB2 receptor binding percent inhibition (CB2 receptor): 21%

O=C(NCc1ccccc1)c1nn(C2CCCCC2)c2c1CCCCC2Cc1cccc(F)c1 (centres unmarked) [Cpd 53, 1-cyclohexyl-8-(3-fluoro-benzyl)-1,4,5,6,7,8-hexahydro-cycloheptapyrazole-3-carboxylic acid benzylamide]
inhibition at 1 µM (CB1 receptor): 33% | CB2 receptor binding percent inhibition (CB2 receptor): 52%

O=C(c1nn(C2CCCCC2)c2c1CCCCC2Cc1cccc(F)c1)N1CCN(c2ccccc2)CC1 (centres unmarked) [Cpd 54, [1-cyclohexyl-8-(3-fluoro-benzyl)-1,4,5,6,7,8-hexahydro-cycloheptapyrazol-3-yl]-(4-phenyl-piperazin-1-yl)-methanone]
inhibition at 1 µM (CB1 receptor): 18% | CB2 receptor binding percent inhibition (CB2 receptor): 41%

O=C(NC1CC1)c1nn(C2CCCCC2)c2c1CCCCC2Cc1ccc(F)cc1 (centres unmarked) [Cpd 56, 1-cyclohexyl-8-(4-fluoro-benzyl)-1,4,5,6,7,8-hexahydro-cycloheptapyrazole-3-carboxylic acid cyclopropylamide]
inhibition at 1 µM (CB1 receptor): 0% | CB2 receptor binding percent inhibition (CB2 receptor): 42%

O=C(NC1CCC1)c1nn(C2CCCCC2)c2c1CCCCC2Cc1ccc(F)cc1 (centres unmarked) [Cpd 57, 1-cyclohexyl-8-(4-fluoro-benzyl)-1,4,5,6,7,8-hexahydro-cycloheptapyrazole-3-carboxylic acid cyclobutylamide]
inhibition at 1 µM (CB1 receptor): 35% | CB2 receptor binding percent inhibition (CB2 receptor): 29%

O=C(NC1CCCC1)c1nn(C2CCCCC2)c2c1CCCCC2Cc1ccc(F)cc1 (centres unmarked) [Cpd 59, 1-cyclohexyl-8-(4-fluoro-benzyl)-1,4,5,6,7,8-hexahydro-cycloheptapyrazole-3-carboxylic acid cyclopentylamide]
inhibition at 1 µM (CB1 receptor): 27% | CB2 receptor binding percent inhibition (CB2 receptor): 60%

O=C(c1nn(C2CCCCC2)c2c1CCCCC2Cc1ccc(F)cc1)N1CCN(c2ccccc2)CC1 (centres unmarked) [Cpd 60, [1-cyclohexyl-8-(4-fluoro-benzyl)-1,4,5,6,7,8-hexahydro-cycloheptapyrazol-3-yl]-(4-phenyl-piperazin-1-yl)-methanone]
inhibition at 1 µM (CB1 receptor): 38% | CB2 receptor binding percent inhibition (CB2 receptor): 38%

O=C(NCc1ccccc1)c1nn(C2CCCCC2)c2c1CCCCC2Cc1ccc(F)cc1 (centres unmarked) [Cpd 61, 1-cyclohexyl-8-(4-fluoro-benzyl)-1,4,5,6,7,8-hexahydro-cycloheptapyrazole-3-carboxylic acid benzylamide]
inhibition at 1 µM (CB1 receptor): 36% | CB2 receptor binding percent inhibition (CB2 receptor): 71%

O=C(NN1CCCCC1)c1nn(C2CCCCC2)c2c1CCCCC2Cc1ccc(F)cc1 (centres unmarked) [Cpd 62, 1-cyclohexyl-8-(4-fluoro-benzyl)-1,4,5,6,7,8-hexahydro-cycloheptapyrazole-3-carboxylic acid piperidin-1-ylamide]
inhibition at 1 µM (CB1 receptor): 5% | CB2 receptor binding percent inhibition (CB2 receptor): 5%

COC(=O)[C@H](Cc1ccc(F)cc1)NC(=O)c1nn(C2CCCCC2)c2c1CCCCC2Cc1ccc(F)cc1 (stereo partly drawn) [Cpd 63, (2S)-2-{[1-cyclohexyl-8-(4-fluoro-benzyl)-1,4,5,6,7,8-hexahydro-cycloheptapyrazole-3-carbonyl]-amino}-3-(4-fluoro-phenyl)-propionic acid methyl ester]
inhibition at 1 µM (CB1 receptor): 29% | CB2 receptor binding percent inhibition (CB2 receptor): 69%

C[C@H](NC(=O)c1nn(C2CCCCC2)c2c1CCCCC2Cc1ccc(F)cc1)c1ccccc1 (stereo partly drawn) [Cpd 64, 1-cyclohexyl-8-(4-fluoro-benzyl)-1,4,5,6,7,8-hexahydro-cycloheptapyrazole-3-carboxylic acid [(1S)-1-phenyl-ethyl]-amide]
inhibition at 1 µM (CB1 receptor): 51% | IC50 (CB2 receptor; calculated by linear regression from percent inhibition at various test concentrations, read-out: Cannabinoid CB2 Receptor Binding IC50): 600 nM | inhibition at 1 µM (CB2 receptor; test concentration 1 μM (footnote 1), read-out: CB2 receptor binding percent inhibition): 70%

O=C(NCc1ccc(C(F)(F)F)cc1)c1nn(C2CCCCC2)c2c1CCCCC2Cc1ccc(F)cc1 (centres unmarked) [Cpd 65, 1-cyclohexyl-8-(4-fluoro-benzyl)-1,4,5,6,7,8-hexahydro-cycloheptapyrazole-3-carboxylic acid 4-trifluoromethyl-benzylamide]
inhibition at 1 µM (CB1 receptor): 29% | CB2 receptor binding percent inhibition (CB2 receptor): 52%

O=C(N[C@@H](CO)c1ccccc1)c1nn(C2CCCCC2)c2c1CCCC[C@@H]2Cc1ccc(F)cc1 [Cpd 66, (8R)-1-cyclohexyl-8-(4-fluoro-benzyl)-1,4,5,6,7,8-hexahydro-cycloheptapyrazole-3-carboxylic acid [(1R)-2-hydroxy-1-phenyl-ethyl]-amide]
inhibition at 1 µM (CB1 receptor): 16% | CB2 receptor binding percent inhibition (CB2 receptor): 33%

O=C(NN1CCCCC1)c1nn(Cc2ccccc2)c2c1CCCCC2c1ccccc1 (centres unmarked) [Cpd 68, 1-benzyl-8-phenyl-1,4,5,6,7,8-hexahydro-cycloheptapyrazole-3-carboxylic acid piperidin-1-ylamide]
inhibition at 0.25 µM (CB1 receptor): 0% | inhibition at 0.25 µM (CB2 receptor; read-out: CB2 receptor binding percent inhibition, test concentration 0.25 μM (footnote 8)): 27%

O=C(NCc1cccc(C(F)(F)F)c1)c1nn(Cc2ccccc2)c2c1CCCCC2c1ccccc1 (centres unmarked) [Cpd 69, 1-benzyl-8-phenyl-1,4,5,6,7,8-hexahydro-cycloheptapyrazole-3-carboxylic acid 3-trifluoromethyl-benzylamide]
inhibition at 0.25 µM (CB1 receptor): 23% | inhibition at 0.25 µM (CB2 receptor; test concentration 0.25 μM (footnote 8), read-out: CB2 receptor binding percent inhibition): 12%

O=C(NC1CCC1)c1nn(-c2ccc(Cl)cc2Cl)c2c1CCCCC2Cc1ccc(F)cc1 (centres unmarked) [Cpd 70, 1-(2,4-dichloro-phenyl)-8-(4-fluoro-benzyl)-1,4,5,6,7,8-hexahydro-cycloheptapyrazole-3-carboxylic acid cyclobutylamide]
CB1 receptor binding average percent inhibition (CB1 receptor): ^(5)37% | CB2 receptor binding percent inhibition (CB2 receptor): 3%

CC12CCC(C1)C(C)(C)[C@H]2NC(=O)c1nn(-c2ccc(Cl)cc2Cl)c2c1CCCCC2Cc1ccc(F)cc1 (stereo partly drawn) [Cpd 71, 1-(2,4-dichloro-phenyl)-8-(4-fluoro-benzyl)-1,4,5,6,7,8-hexahydro-cycloheptapyrazole-3-carboxylic acid [(2S)-1,3,3-trimethyl-bicyclo[2.2.1]hept-2-yl]-amide]
CB1 receptor binding average percent inhibition (CB1 receptor): ^(5)43% | CB2 receptor binding percent inhibition (CB2 receptor): 32%

COC(=O)[C@H](Cc1ccc(F)cc1)NC(=O)c1nn(-c2ccc(Cl)cc2Cl)c2c1CCCCC2Cc1ccc(F)cc1 (stereo partly drawn) [Cpd 72, (2S)-2-{[1-(2,4-dichloro-phenyl)-8-(4-fluoro-benzyl)-1,4,5,6,7,8-hexahydro-cycloheptapyrazole-3-carbonyl]-amino}-3-(4-fluoro-phenyl)-propionic acid methyl ester]
CB1 receptor binding average percent inhibition (CB1 receptor): ^(5)38% | CB2 receptor binding percent inhibition (CB2 receptor): 10%

COC(=O)[C@H](Cc1ccc(F)cc1)NC(=O)c1nn(C2CCCCC2)c2c1CCCCC2Cc1cccc(F)c1 (stereo partly drawn) [Cpd 73, (2S)-2-{[1-cyclohexyl-8-(3-fluoro-benzyl)-1,4,5,6,7,8-hexahydro-cycloheptapyrazole-3-carbonyl]-amino}-3-(4-fluoro-phenyl)-propionic acid methyl ester]
CB1 receptor binding average percent inhibition (CB1 receptor): ^(5)24% | CB2 receptor binding percent inhibition (CB2 receptor): 8%

CCOC(=O)[C@H]1C2C=CC(C2)[C@H]1NC(=O)c1nn(C2CCCCC2)c2c1CCCCC2Cc1cccc(F)c1 (stereo partly drawn) [Cpd 74, (2S,3R)-3-{[1-cyclohexyl-8-(3-fluoro-benzyl)-1,4,5,6,7,8-hexahydro-cycloheptapyrazole-3-carbonyl]-amino}-bicyclo[2.2.1]hept-5-ene-2-carboxylic acid ethyl ester]
CB1 receptor binding average percent inhibition (CB1 receptor): ^(5)1% | CB2 receptor binding percent inhibition (CB2 receptor): 10%
